Laboratory results: patent US20250049806A1, “PHARMACEUTICAL COMPOSITION FOR PROVIDING TREATMENT FOR OR PREVENTING ALPORT SYNDROME” (UBE Corporation, priority 2021, published 2025)

assay: Transcellular transport test using Caco2 cell; format: in vitro ADME; settings: human, Caco-2, apical-to-basolateral (A-to-B), pH=7.4, 10 µM compound
Experimental: Caco2 cells (purchased from ATCC) were cultured in DMEM medium (Thermo Fisher Scientific, Inc., 11965) containing 10% FBS (Thermo Fisher Scientific, Inc., 10082) and 1% penicillin/streptomycin/amphotericin B (Thermo Fisher Scientific, Inc., 15240). A transcellular transport test was carried out in accordance with MultiScreen Caco2 Drug Transport Assembly in a 96-well system (Application Note AN1727EN, MultiScreen Caco-2 Assay System, Merck) by partially modifying it. The Caco2 cells were inoculated at a cell density of 4×10^4 cells/well onto a micropore polycarbonate insert of a 96-well plate (Merck, Millcell-96 culture insert plate 0.4 μm pore size, well membrane area=0.11 cm^2, PSHT004S5) and cultured for 20 to 22 days, and the resulting monolayer was used in the transcellular transport test. The medium of the inoculated cells was replaced with a fresh one every 3 to 4 days.
Apical-to-basolateral (A-to-B) transport in the Caco2 cell monolayer membrane was performed by using HBSS (Thermo Fisher Scientific, Inc., 14025) medium (pH=7.4) containing 20 mM HEPES (Thermo Fisher Scientific, Inc., 15630), and adding HEPES-containing HBSS medium containing 10 µM compound (a 10 mM solution of the compound in DMSO was added at a 1000-fold dilution; final DMSO concentration: 0.1%) at 75 μL/well to the apical side and HEPES-containing HBSS medium supplemented with no compound at 250 μL/well to the basolateral side, followed by culture at 37° C. for 90 minutes. After culture, a 100 μL aliquot was collected from the basolateral side, and the concentration of a permeated compound was measured by LC-MS/MS under measurement conditions mentioned later. Papp (apparent permeability; cm/sec) was calculated from the determined concentration. Papp was determined according to the expression given below by calculating the slope (dA/dt; nmol/sec) of a straight line drawn between two points 0 minutes and zero amount of the compound in a graph plotted with an assay time (90 min) on the abscissa against the amount of the compound in the solution on the permeated side on the ordinate. As for an assay concentration, the concentration in the compound in the HEPES-containing HBSS medium containing the added compound was measured by UV-HPLC under measurement conditions mentioned later.
C0: assay concentration, S: plate membrane area=0.11 cm^2
• LC: LC20 or LC30 HPLC system manufactured by Shimadzu Corp. • Column: Phenomenex Kinetex C18 (50 mm×2.1 mm, 2.6 μm) • Column temperature: 40° C. • Flow rate: 0.3 mL/min • Mobile phase A: 0.1% aqueous formic acid solution • Mobile phase B: 0.1% formic acid, 50% acetonitrile/methanol mixed solution • Gradient: 0-2 min; A/B=90/10 to 10/90, 2-3 min; A/B=10/90, 3-3.01 min; A/B=10/90 to 90/10 • MS: Q-Trap3200 manufactured by AB Sciex Pte. Ltd. • Ionization: ESI • Mode: Positive
• LC: LC20 or LC30 HPLC system manufactured by Shimadzu Corp. • Column: Phenomenex Kinetex C18 (100 mm×2.1 mm, 2.6 μm) • Column temperature: 40° C. • Flow rate: 0.25 mL/min • Mobile phase A: 0.1% aqueous formic acid solution • Mobile phase B: 0.1% formic acid, 50% acetonitrile/methanol mixed solution • Gradient: 0-3 min; A/B=90/10, 3-11 min; A/B=90/10 to 5/95, 11-15 min; A/B=5/95, 15-15.1 min; A/B=5/95 to 90/10 • UV detector: photodiode array detector
A: Papp>1×10^−6 (cm/sec), B: 1×10^−6 (cm/sec)≥Papp>5×10^−7 (cm/sec), C: 5×10^−7 (cm/sec)≥Papp>1×10^−7 (cm/sec), or D: Papp≤1×10^−7 (cm/sec).

Row | Papp A→B at 90 min, 10 µM [×10⁻⁶ cm/s] | Compound
1 | > 1 | O=C(O)C[C@H](NC(=O)CNC(=O)c1cc(NC2=NCC(F)CN2)c2cn[nH]c2c1)c1cc(Cl)cc(OC(F)(F)F)c1 (stereo partly drawn) [31-(b), (3S)-3-(3-chloro-5-(trifluoromethoxy)phenyl)-3-(2-(4-((5-fluoro-1,4,5,6-tetrahydropyrimidin-2-yl)amino)-1H-indazole-6-carboxamido)acetamido)propanoic acid]
2 | > 1 | O=C(O)C[C@H](NC(=O)CNC(=O)c1cc(NC2=NCC(F)CN2)c2cn[nH]c2c1)c1cc(Cl)cc(OC(F)F)c1 (stereo partly drawn) [25-(b), (3S)-3-(3-chloro-5-(difluoromethoxy)phenyl)-3-(2-(4-((5-fluoro-1,4,5,6-tetrahydropyrimidin-2-yl)amino)-1H-indazole-6-carboxamido)acetamido)propanoic acid]
3 | > 1 | O=C(O)C[C@H](NC(=O)CNC(=O)c1cc(NC2=NCC(F)CN2)c2cn[nH]c2c1)c1cc(F)cc(C(F)(F)F)c1 (stereo partly drawn) [6-(b), (3S)-3-(2-(4-((5-fluoro-1,4,5,6-tetrahydropyrimidin-2-yl)amino)-1H-indazole-6-carboxamido)acetamido)-3-(3-fluoro-5-(trifluoromethyl)phenyl)propanoic acid]
4 | > 1 | O=C(O)C[C@H](NC(=O)CNC(=O)c1cc(NC2=NCC(F)CN2)c2cn[nH]c2c1)c1cc(Br)cc(OC(F)(F)F)c1 (stereo partly drawn) [32-(b), (3S)-3-(3-bromo-5-(trifluoromethoxy)phenyl)-3-(2-(4-((5-fluoro-1,4,5,6-tetrahydropyrimidin-2-yl)amino)-1H-indazole-6-carboxamido)acetamido)propanoic acid]
5 | > 1 | O=C(O)C[C@H](NC(=O)CNC(=O)c1cc(NC2=NCC(F)CN2)c2cn[nH]c2c1)c1cc(OC(F)(F)F)ccc1F (stereo partly drawn) [33-(b), (3S)-3-(2-(4-((5-fluoro-1,4,5,6-tetrahydropyrimidin-2-yl)amino)-1H-indazole-6-carboxamido)acetamido)-3-(2-fluoro-5-(trifluoromethoxy)phenyl)propanoic acid]
6 | > 1 | O=C(O)C[C@H](NC(=O)CNC(=O)c1cc(NC2=NCC(F)CN2)c2cn[nH]c2c1)c1cc(Cl)cc(Br)c1 (stereo partly drawn) [18-(b), (3S)-3-(3-bromo-5-chlorophenyl)-3-(2-(4-((5-fluoro-1,4,5,6-tetrahydropyrimidin-2-yl)amino)-1H-indazole-6-carboxamido)acetamido)propanoic acid]
7 | > 1 | O=C(O)C[C@H](NC(=O)CNC(=O)c1cc(NC2=NCC(F)CN2)c2cn[nH]c2c1)c1cccc(OC(F)(F)F)c1 (stereo partly drawn) [36-(b), (3S)-3-(2-(4-((5-fluoro-1,4,5,6-tetrahydropyrimidin-2-yl)amino)-1H-indazole-6-carboxamido)acetamido)-3-(3-(trifluoromethoxy)phenyl)propanoic acid]

Further lines, the molecule ahead of its results:

Row | Compound | Papp A→B at 90 min, 10 µM [×10⁻⁶ cm/s]
8 | O=C(O)C[C@H](NC(=O)CNC(=O)c1cc(NC2=NCC(F)CN2)c2cn[nH]c2c1)c1cccc(N2CCOCC2)c1 (stereo partly drawn) [45-(b), (3S)-3-(2-(4-((5-fluoro-1,4,5,6-tetrahydropyrimidin-2-yl)amino)-1H-indazole-6-carboxamido)acetamido)-3-(3-morpholinophenyl)propanoic acid] | 0.5 to 1
9 | O=C(O)C[C@H](NC(=O)CNC(=O)c1cc(NC2=NCC(F)CN2)cc2[nH]ncc12)c1cc(Cl)cc(C(F)(F)F)c1 (stereo partly drawn) [52-(b), (3S)-3-(3-chloro-5-(trifluoromethyl)phenyl)-3-(2-(6-((5-fluoro-1,4,5,6-tetrahydropyrimidin-2-yl)amino)-1H-indazole-4-carboxamido)acetamido)propanoic acid] | 0.1 to 0.5
10 | O=C(O)C[C@H](NC(=O)CNC(=O)c1cc(NC2=NCC(F)CN2)c2cn[nH]c2c1)c1cccc(C(F)(F)F)c1F (stereo partly drawn) [9-(b), (3S)-3-(2-(4-((5-fluoro-1,4,5,6-tetrahydropyrimidin-2-yl)amino)-1H-indazole-6-carboxamido)acetamido)-3-(2-fluoro-3-(trifluoromethyl)phenyl)propanoic acid] | > 1
11 | O=C(O)C[C@H](NC(=O)CNC(=O)c1cc(NC2=NCC(F)CN2)c2cn[nH]c2c1)c1cc(Br)ccc1F (stereo partly drawn) [23-(b), (3S)-3-(5-bromo-2-fluorophenyl)-3-(2-(4-((5-fluoro-1,4,5,6-tetrahydropyrimidin-2-yl)amino)-1H-indazole-6-carboxamido)acetamido)propanoic acid] | > 1
12 | O=C(O)C[C@H](NC(=O)CNC(=O)c1cc(NC2=NCC(F)CN2)c2cn[nH]c2c1)c1cc(OC(F)F)cc(OC(F)F)c1 (stereo partly drawn) [30-(b), (3S)-3-(3,5-bis(difluoromethoxy)phenyl)-3-(2-(4-((5-fluoro-1,4,5,6-tetrahydropyrimidin-2-yl)amino)-1H-indazole-6-carboxamido)acetamido)propanoic acid] | 0.5 to 1
13 | O=C(O)C[C@H](NC(=O)CNC(=O)c1cc(NC2=NCC(F)CN2)c2cn[nH]c2c1)c1cccc(C(F)(F)F)c1 (stereo partly drawn) [35-(b), (3S)-3-(2-(4-((5-fluoro-1,4,5,6-tetrahydropyrimidin-2-yl)amino)-1H-indazole-6-carboxamido)acetamido)-3-(3-(trifluoromethyl)phenyl)propanoic acid] | > 1
14 | O=C(O)C[C@H](NC(=O)CNC(=O)c1cc(NC2=NCC(F)CN2)c2cn[nH]c2c1)c1cc(OC(F)F)ccc1F (stereo partly drawn) [28-(b), (3S)-3-(5-(difluoromethoxy)-2-fluorophenyl)-3-(2-(4-((5-fluoro-1,4,5,6-tetrahydropyrimidin-2-yl)amino)-1H-indazole-6-carboxamido)acetamido)propanoic acid] | > 1
15 | O=C(O)C[C@H](NC(=O)CNC(=O)c1cc(NC2=NCC(F)CN2)c2cn[nH]c2c1)c1cccc(Br)c1 (stereo partly drawn) [42-(b), (3S)-3-(3-bromophenyl)-3-(2-(4-((5-fluoro-1,4,5,6-tetrahydropyrimidin-2-yl)amino)-1H-indazole-6-carboxamido)acetamido)propanoic acid] | > 1
16 | O=C(O)C[C@H](NC(=O)CNC(=O)c1cc(NC2=NCC(F)CN2)c2cn[nH]c2c1)c1cc(Cl)cc(Cl)c1 (stereo partly drawn) [17-(b), (3S)-3-(3,5-dichlorophenyl)-3-(2-(4-((5-fluoro-1,4,5,6-tetrahydropyrimidin-2-yl)amino)-1H-indazole-6-carboxamido)acetamido)propanoic acid] | > 1
17 | O=C(O)C[C@H](NC(=O)CNC(=O)c1cc(NC2=NCC(F)CN2)c2cn[nH]c2c1)c1cccc(OC2CC2)c1 (stereo partly drawn) [40-(b), (3S)-3-(3-cyclopropoxyphenyl)-3-(2-(4-((5-fluoro-1,4,5,6-tetrahydropyrimidin-2-yl)amino)-1H-indazole-6-carboxamido)acetamido)propanoic acid] | > 1
18 | O=C(O)C[C@H](NC(=O)CNC(=O)c1cc(NC2=NCC(F)CN2)c2cn[nH]c2c1)c1cccc(C(F)(F)F)c1Cl (stereo partly drawn) [10-(b), (3S)-3-(2-chloro-3-(trifluoromethyl)phenyl)-3-(2-(4-((5-fluoro-1,4,5,6-tetrahydropyrimidin-2-yl)amino)-1H-indazole-6-carboxamido)acetamido)propanoic acid] | > 1
19 | O=C(O)C[C@H](NC(=O)CNC(=O)c1cc(NC2=NCC(F)CN2)c2cn[nH]c2c1)c1cccc(OC(F)F)c1 (stereo partly drawn) [37-(b), (3S)-3-(3-(difluoromethoxy)phenyl)-3-(2-(4-((5-fluoro-1,4,5,6-tetrahydropyrimidin-2-yl)amino)-1H-indazole-6-carboxamido)acetamido)propanoic acid] | > 1
